According to US11697648B2, “Fused pyrimidine pyridinone compounds as JAK inhibitors” (THERAVANCE BIOPHARMA R&D IP, LLC, priority 2019, dated 2023):

Legend:
JAK3 = JAK3 (Homo sapiens (Human), UniProt P52333); assay: Biochemical JAK3 kinase assay (LanthaScreen)
Procedure: (§1) Assay 1: Biochemical JAK and Tyk2 Kinase Assays
(§2) A panel of four LanthaScreen JAK biochemical assays (JAK1, 2, 3 and Tyk2) were carried in a common kinase reaction buffer (50 mM HEPES, pH 7.5, 0.01% Brij-35, 10 mM MgCl2, and 1 mM EGTA). Recombinant GST-tagged JAK enzymes and a GFP-tagged STAT1 peptide substrate were obtained from Life Technologies.
(§3) Serially or discretely diluted compounds were pre-incubated with each of the four JAK enzymes and the substrate in white 384-well microplates (Corning) at ambient temperature for 1 h. ATP was subsequently added to initiate the kinase reactions in 10 μL total volume, with 1% DMSO. […] Kinase reactions were allowed to proceed for 1 hour at ambient temperature before a 10 μL preparation of EDTA (10 mM final concentration) and Tb-anti-pSTAT1 (pTyr701) antibody (Life Technologies, 2 nM final concentration) in TR-FRET dilution buffer (Life Technologies) was added. The plates were allowed to incubate at ambient temperature for 1 h before being read on the EnVision reader (Perkin Elmer). Emission ratio signals (520 nm/495 nm) were recorded and utilized to calculate the percent inhibition values based on DMSO and background controls.
(§4) For dose-response analysis, percent inhibition data were plotted vs. compound concentrations, and IC50 values were determined from a 4-parameter robust fit model with the Prism software (GraphPad Software). Results were expressed as pIC50 (negative logarithm of IC50) and subsequently converted to pKi (negative logarithm of dissociation constant, Ki) using the Cheng-Prusoff equation.

[1] = tested on: IL-2 stimulated STAT5 phosphorylation in Tall-1 human T cell line (JAK3); assay: Cellular JAK3 potency assay: inhibition of IL-2 stimulated pSTAT5 in Tall-1 T cells; format: cell-based
Procedure: Assay 2: Cellular JAK3 Potency Assay: Inhibition of IL-2 Stimulated pSTAT5 in Tall-1 T Cells
The potency of test compounds for inhibition of interleukin-2 (IL-2) stimulated STAT5 phosphorylation was measured in the Tall-1 human T cell line (DSMZ) using AlphaLisa. Because IL-2 signals through JAK3, this assay provides a measure of JAK3 cellular potency.
Phosphorylated STAT5 was measured via the AlphaLISA SureFire Ultra pSTAT5 (Tyr694/699) kit (PerkinElmer).
Human T cells from the Tall-1 cell line were cultured in a 37° C., 5% CO2 humidified incubator in RPMI (Life Technologies) supplemented with 15% Heat Inactivated Fetal Bovine Serum (FBS, Life Technologies), 2 mM Glutamax (Life Technologies), 25 mM HEPES (Life Technologies) and 1× Pen/Strep (Life Technologies). Compounds were serially diluted in DMSO and dispensed acoustically to empty wells. Assay media (phenol red-free DMEM (Life Technologies) supplemented with 10% FBS (ATCC)) was dispensed (4 μL/well) and plates shaken at 900 rpm for 10 inns. Cells were seeded at 45,000 cells/well in assay media (4 μL/well), and incubated at 37° C., 5% CO2 for 1 hour, followed by the addition of IL-2 (R&D Systems; final concentration 300 ng/ml) in pre-warmed assay media (4 μL) for 30 minutes. After cytokine stimulation, cells were lysed with 6 ul of 3× AlphaLisa Lysis Buffer (PerkinElmer) containing 1× PhosStop and Complete tablets (Roche). The lysate was shaken at 900 rpm for 10 minutes at room temperature (RT). Phosphorylated STAT5 was measured via the pSTAT5 AlphaLisa kit (PerkinElmer). Freshly prepared acceptor bead mixture was dispensed onto lysate (5 μL) under green filtered <100 lux light. Plates were shaken at 900 rpm for 2 mins, briefly spun down, and incubated for 2 hrs at RT in the dark. Donor beads were dispensed (5 μL) under green filtered <100 lux light. Plates were shaken at 900 rpm for 2 minutes, briefly spun down, and incubated overnight at RT in the dark. Luminescence was measured with excitation at 689 nm and emission at 570 nm using an EnVision plate reader (PerkinElmer) under green filtered <100 lux light.
To determine the inhibitory potency of test compounds in response to IL-2, the average emission intensity of beads bound to pSTAT5 was measured in a human T cell line. IC50 values were determined from analysis of the inhibition curves of signal intensity versus compound concentration. Data are expressed as pIC50 (negative decadic logarithm IC50) values (mean standard deviation).

JAK1 = JAK1 (Homo sapiens (Human), UniProt P23458); assay: Biochemical JAK1 kinase assay (LanthaScreen)
Chain of JAK1 (P23458 whole entry): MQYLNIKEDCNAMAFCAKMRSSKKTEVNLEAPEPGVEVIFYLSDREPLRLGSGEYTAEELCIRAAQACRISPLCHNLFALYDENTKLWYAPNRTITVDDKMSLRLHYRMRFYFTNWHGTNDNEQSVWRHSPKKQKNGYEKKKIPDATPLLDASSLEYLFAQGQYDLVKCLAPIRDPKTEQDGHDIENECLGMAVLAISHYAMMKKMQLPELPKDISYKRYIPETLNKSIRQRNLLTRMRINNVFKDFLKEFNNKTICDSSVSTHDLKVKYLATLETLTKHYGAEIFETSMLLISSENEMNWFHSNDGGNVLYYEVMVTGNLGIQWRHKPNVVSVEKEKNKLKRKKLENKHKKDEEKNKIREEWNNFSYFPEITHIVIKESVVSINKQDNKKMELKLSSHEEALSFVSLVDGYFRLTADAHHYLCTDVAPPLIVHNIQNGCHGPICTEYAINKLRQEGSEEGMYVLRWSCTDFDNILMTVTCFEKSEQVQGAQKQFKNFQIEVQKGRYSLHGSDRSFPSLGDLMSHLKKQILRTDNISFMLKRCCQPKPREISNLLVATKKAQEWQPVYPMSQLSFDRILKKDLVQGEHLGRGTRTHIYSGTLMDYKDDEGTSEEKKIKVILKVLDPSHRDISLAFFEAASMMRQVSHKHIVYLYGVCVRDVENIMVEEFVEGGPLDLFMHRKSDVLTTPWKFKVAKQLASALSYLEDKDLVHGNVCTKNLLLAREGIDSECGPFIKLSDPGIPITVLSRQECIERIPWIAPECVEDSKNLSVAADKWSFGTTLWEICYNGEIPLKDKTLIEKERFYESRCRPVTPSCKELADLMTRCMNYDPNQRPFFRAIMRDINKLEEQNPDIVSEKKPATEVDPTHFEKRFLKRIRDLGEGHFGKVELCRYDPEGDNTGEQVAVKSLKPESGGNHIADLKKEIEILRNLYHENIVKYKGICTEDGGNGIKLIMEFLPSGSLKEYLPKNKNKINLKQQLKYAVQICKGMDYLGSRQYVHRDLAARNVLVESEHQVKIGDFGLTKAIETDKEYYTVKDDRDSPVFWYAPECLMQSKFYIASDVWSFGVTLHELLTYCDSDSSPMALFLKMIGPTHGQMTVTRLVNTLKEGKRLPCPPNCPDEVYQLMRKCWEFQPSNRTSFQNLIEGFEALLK
Procedure: as §1, §2, §3, §4

Tyk2 = Tyk2 (Homo sapiens (Human), UniProt P29597); assay: Biochemical Tyk2 kinase assay (LanthaScreen)
Chain of Tyk2 (P29597 whole entry): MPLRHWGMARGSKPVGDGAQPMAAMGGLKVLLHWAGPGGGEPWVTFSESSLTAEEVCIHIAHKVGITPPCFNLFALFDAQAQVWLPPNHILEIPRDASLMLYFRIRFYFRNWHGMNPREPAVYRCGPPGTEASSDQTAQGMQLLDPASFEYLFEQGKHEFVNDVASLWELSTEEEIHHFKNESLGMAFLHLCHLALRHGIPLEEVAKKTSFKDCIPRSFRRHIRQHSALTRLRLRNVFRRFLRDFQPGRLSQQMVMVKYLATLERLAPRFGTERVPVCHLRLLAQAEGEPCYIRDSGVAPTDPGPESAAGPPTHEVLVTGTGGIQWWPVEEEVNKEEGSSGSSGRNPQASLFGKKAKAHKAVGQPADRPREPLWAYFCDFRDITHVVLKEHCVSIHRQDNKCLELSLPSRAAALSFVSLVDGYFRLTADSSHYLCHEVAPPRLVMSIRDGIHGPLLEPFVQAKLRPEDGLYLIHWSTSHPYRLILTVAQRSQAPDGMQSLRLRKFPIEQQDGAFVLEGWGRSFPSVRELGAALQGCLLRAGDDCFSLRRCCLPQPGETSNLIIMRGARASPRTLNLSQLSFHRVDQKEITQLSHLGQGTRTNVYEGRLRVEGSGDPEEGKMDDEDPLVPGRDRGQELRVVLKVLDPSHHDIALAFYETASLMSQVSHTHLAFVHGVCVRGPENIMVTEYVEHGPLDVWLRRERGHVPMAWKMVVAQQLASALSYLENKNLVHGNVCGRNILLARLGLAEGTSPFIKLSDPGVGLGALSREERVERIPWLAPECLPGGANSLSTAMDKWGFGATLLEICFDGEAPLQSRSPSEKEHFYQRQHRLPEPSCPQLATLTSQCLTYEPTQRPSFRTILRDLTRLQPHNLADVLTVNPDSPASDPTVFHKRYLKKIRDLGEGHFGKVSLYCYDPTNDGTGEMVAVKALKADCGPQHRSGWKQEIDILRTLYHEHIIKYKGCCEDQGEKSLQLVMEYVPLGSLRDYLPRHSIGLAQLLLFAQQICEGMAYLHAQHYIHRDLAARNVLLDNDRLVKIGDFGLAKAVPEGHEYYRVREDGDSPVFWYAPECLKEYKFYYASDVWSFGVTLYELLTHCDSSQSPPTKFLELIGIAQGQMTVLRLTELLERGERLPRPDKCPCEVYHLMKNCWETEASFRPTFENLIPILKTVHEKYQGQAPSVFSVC
Procedure: as §1, §2, §3, §4

JAK2 = JAK2 (Homo sapiens (Human), UniProt O60674); assay: Biochemical JAK2 kinase assay (LanthaScreen)
Chain of JAK2 (O60674 whole entry): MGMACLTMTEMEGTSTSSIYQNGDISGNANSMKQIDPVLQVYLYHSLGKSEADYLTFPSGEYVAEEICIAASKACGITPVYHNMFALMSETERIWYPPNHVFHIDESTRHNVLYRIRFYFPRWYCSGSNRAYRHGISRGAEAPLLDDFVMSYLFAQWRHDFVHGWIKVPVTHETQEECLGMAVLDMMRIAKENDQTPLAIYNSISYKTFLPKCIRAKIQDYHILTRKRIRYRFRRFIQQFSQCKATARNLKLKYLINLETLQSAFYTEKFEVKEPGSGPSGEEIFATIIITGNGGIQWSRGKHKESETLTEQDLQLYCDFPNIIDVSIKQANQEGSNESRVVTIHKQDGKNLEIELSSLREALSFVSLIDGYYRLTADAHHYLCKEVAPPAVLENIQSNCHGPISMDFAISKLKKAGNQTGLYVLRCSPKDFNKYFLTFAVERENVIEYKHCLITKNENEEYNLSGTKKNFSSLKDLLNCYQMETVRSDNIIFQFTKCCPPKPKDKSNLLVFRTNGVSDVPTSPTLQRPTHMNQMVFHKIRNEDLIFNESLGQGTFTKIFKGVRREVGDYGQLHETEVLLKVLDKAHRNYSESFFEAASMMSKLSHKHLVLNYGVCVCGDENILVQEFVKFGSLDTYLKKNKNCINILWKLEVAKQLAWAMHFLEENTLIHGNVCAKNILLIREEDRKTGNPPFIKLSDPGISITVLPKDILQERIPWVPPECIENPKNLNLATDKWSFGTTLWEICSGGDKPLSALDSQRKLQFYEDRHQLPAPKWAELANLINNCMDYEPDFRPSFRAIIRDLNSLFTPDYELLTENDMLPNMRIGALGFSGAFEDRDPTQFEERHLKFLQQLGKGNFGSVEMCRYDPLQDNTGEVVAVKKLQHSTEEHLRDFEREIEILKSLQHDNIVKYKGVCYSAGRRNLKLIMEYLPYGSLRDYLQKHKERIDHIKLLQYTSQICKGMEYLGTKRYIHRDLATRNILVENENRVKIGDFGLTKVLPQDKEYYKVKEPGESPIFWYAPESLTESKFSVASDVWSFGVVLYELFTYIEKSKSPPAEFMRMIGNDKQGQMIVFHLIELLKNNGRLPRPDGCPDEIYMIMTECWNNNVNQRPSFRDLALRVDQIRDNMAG
Procedure: as §1, §2, §3, §4

[2] = selectivity JAK3 over JAK1, difference of pKi
[3] = IL-2 stimulated pSTAT5, Tall-1 T cells
[4] = selectivity, difference of pKi values
[5] = IL-2 stimulated pSTAT5 in Tall-1 T cells

Chain of JAK3 (P52333 whole entry): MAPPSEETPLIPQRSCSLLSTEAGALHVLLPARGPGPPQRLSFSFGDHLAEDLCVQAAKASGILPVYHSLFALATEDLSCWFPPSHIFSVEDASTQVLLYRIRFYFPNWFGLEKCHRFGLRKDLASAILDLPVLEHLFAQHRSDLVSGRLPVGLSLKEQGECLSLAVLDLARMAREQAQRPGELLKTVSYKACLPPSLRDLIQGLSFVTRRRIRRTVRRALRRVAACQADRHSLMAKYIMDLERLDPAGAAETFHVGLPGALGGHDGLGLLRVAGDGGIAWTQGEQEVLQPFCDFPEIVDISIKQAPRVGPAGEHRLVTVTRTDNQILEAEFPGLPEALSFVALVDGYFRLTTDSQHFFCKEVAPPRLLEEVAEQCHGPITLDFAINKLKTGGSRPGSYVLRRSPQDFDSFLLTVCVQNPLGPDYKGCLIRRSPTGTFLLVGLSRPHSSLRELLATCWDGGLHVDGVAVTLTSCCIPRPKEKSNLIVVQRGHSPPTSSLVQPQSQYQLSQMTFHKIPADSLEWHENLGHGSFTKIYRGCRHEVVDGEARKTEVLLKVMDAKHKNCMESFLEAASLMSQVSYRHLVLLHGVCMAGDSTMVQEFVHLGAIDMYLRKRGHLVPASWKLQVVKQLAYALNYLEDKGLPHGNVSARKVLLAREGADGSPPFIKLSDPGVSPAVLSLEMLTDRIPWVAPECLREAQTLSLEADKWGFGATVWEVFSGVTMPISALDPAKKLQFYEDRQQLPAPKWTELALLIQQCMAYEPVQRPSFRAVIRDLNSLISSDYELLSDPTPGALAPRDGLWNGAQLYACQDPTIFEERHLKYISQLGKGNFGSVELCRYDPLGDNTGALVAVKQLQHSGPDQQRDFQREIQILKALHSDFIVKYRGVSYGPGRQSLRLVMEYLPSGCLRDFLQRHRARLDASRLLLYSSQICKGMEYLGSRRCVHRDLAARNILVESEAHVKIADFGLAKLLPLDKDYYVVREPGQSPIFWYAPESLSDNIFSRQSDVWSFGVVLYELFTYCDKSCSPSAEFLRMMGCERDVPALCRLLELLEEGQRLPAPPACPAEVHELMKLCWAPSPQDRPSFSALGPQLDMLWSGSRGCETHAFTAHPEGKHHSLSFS

SMILES	JAK 3 (pKi) (JAK3)	JAK3 (pKi)-JAK1 (pKi) (JAK3; [2])	Tall-1 (pIC50) [1, 3]	JAK 1 (pKi) (JAK1)	Tyk 2 (pKi) (Tyk2)	JAK 2 (pKi) (JAK2)	JAK3 (pKi)-JAK1 (pKi) (JAK3; [4])	Tall-1 (pIC50) [1, 5]
C=CC(=O)N1CCN(CCn2c(=O)ccc3cnc(Nc4ccc(N5CCN(C(=O)COC)CC5)cc4)nc32)CC1 [Example 144]	A (A represents a pKi value≥10 (Ki≤0.1 nM))	A (A represents a value of 3 or above)	B (B represents a pC50 value between 6.7 (included) and 7.5 (IC50 between 200 nM and 32 nM))	E (E represents a pKi value of 7 or below (Ki of 100 nM or above))	E (E represents a pKi value of 7 or below (Ki of 100 nM or above))	E (E represents a pKi value of 7 or below (Ki of 100 nM or above))		
C=CC(=O)N1CCN(CCn2c(=O)ccc3cnc(Nc4ccn(C(C)C)n4)nc32)[C@@H](C)C1 [Example 258]	B (B represents pKi value between 9 and 10 (Ki between 1 nM and 0.1 nM))			E (E represents a pKi value of 7 or below (Ki of 100 nM or above))			A (A represents a value of 3 or above)	C (C represents a pIC50 value between 6 and 6.7 (IC50 between 1 μM and 200 nM))
C=CC(=O)N1CCN(C(C)Cn2c(=O)ccc3cnc(Nc4ccc(N5CCN(C)CC5)cc4)nc32)CC1 (stereo not shown) [Example 218]	C (C represents a pKi value between 8 and 9 (Ki between 10 nM and 1 nM))	B (B represents a value of 2.5 to 3)	C (C represents a pIC50 value between 6 and 6.7 (IC50 between 1 μM and 200 nM))	E (E represents a pKi value of 7 or below (Ki of 100 nM or above))				
C=CC(=O)N1CCN(CCn2c(=O)ccc3cnc(Nc4ccc(N5CCN(C6CC6)CC5)cc4)nc32)CC1 [Example 50]	B (B represents pKi value between 9 and 10 (Ki between 1 nM and 0.1 nM))	A (A represents a value of 3 or above)	C (C represents a pIC50 value between 6 and 6.7 (IC50 between 1 μM and 200 nM))	E (E represents a pKi value of 7 or below (Ki of 100 nM or above))				
C=CC(=O)N1CCN(CCn2c(=O)ccc3cnc(Nc4cnn(C)c4)nc32)[C@@H](CC#N)C1 [Example 261]	B (B represents pKi value between 9 and 10 (Ki between 1 nM and 0.1 nM))			E (E represents a pKi value of 7 or below (Ki of 100 nM or above))			A (A represents a value of 3 or above)	B (B represents a pC50 value between 6.7 (included) and 7.5 (IC50 between 200 nM and 32 nM))
C=CC(=O)N1CCN(CCn2c(=O)ccc3cnc(Nc4cnn(C)c4)nc32)[C@@H](CN(C)C)C1 [Example 262]	C (C represents a pKi value between 8 and 9 (Ki between 10 nM and 1 nM))			E (E represents a pKi value of 7 or below (Ki of 100 nM or above))			B (B represents a value of 2.5 to 3)	C (C represents a pIC50 value between 6 and 6.7 (IC50 between 1 μM and 200 nM))
C=CC(=O)N1CC(CCn2c(=O)ccc3cnc(Nc4ccc(N5C[C@@H](C)N(C)C[C@@H]5C)cc4)nc32)C1 [Example 253]	A (A represents a pKi value≥10 (Ki≤0.1 nM))			E (E represents a pKi value of 7 or below (Ki of 100 nM or above))			A (A represents a value of 3 or above)	B (B represents a pC50 value between 6.7 (included) and 7.5 (IC50 between 200 nM and 32 nM))
C=CC(=O)N1CCN(CCn2c(=O)ccc3cnc(Nc4ccccc4)nc32)CC1 [Example 40]	B (B represents pKi value between 9 and 10 (Ki between 1 nM and 0.1 nM))	A (A represents a value of 3 or above)	C (C represents a pIC50 value between 6 and 6.7 (IC50 between 1 μM and 200 nM))	E (E represents a pKi value of 7 or below (Ki of 100 nM or above))				
